Data taken from patent US11821042B2, “Targeting chromosomal instability and downstream cytosolic DNA signaling for cancer treatment” (Cornell University, priority 2017, dated 2023).

Test system: MDA-MB-231 cells
Test: In vitro invasion assay through collagen membrane (CytoSelect)
Type: cell-based, human
Details: addition to MCAK (CIN-low) cells
Procedure: For the invasion and migration/chemotaxis assays the CytoSelect cell invasion (CBA-110) and cell migration (CBA-100) kits, respectively, were used. Briefly, 3×10^5 cells were suspended in serum-free media and placed on top of the membrane. […] For the chemotaxis assay, we used a colorimetric approach (OD 560 nm) for quantification. For the scratch assay, cells were treated with mitomycin C (10 μgml^−1) for 1 hour when they reached >90% confluence and then placed in DMEM containing 1% FBS. Wounds were applied using p200 pipette tip and images of the wound were taken immediately and at subsequent regular intervals. ImageJ was used for quantification of wound surface area.

In the case of `Nc1nc2c(ncn2[C@@H]2O[C@@H]3COP(=O)(O)O[C@H]4[C@@H](O)[C@H](n5cnc6c(N)ncnc65)O[C@@H]4COP(=O)(O)O[C@@H]2[C@@H]3O)c(=O)[nH]1` [cGAMP, cyclic guanosine monophosphate-adenosine monophosphate], the “ability to migrate and invade through a collagen membrane” value is reported as “increased”.
